Experimental data as given in patent US20220331416A1, “COMBINED EXPRESSION OF A CHIMERIC CD3 FUSION PROTEIN AND AN ANTI-CD3-BASED BISPECIFIC T CELL ACTIVATING ELEMENT” (BIOTHEUS (SUZHOU) CO., LTD., priority 2019, published 2022).

What was measured:
[1] = tested on: HER2 CAB-T co-cultured with SKBR3; assay: Dasatinib inhibition of cytokine release of HER2 CAB-T; assay type: cell-based; details: activated HER2 CAB-T, co-cultured overnight
[2] = tested on: CAIX CAB-T co-cultured with CALX+MDA-MB231; details: E:T 5:1, over 12 hours
Description: Briefly, 5×10^4 effector cells (CAIX CAB-T or HER2 CAB-T) and 1×10^4 target cells (CALX+MDA-MB231 or SKBR3) were co-cultured with a gradient concentration of dasatinib (100 nM, 50 nM, 25 nM, 12.5 nM, 6.25 nM, 0 nM), Cytotoxicity of CAB-T to its target cells were determined in 2-hour intervals over a period of 12 hours [effector-to-target cell (E:T) ratio, 5:1].

[3] = tested on: CAIX CAB-T co-cultured with CAIX+MDA-MB231; assay: Dasatinib inhibition of cytokine release of CAIX CAB-T; assay type: cell-based; details: activated CAIX CAB-T, co-cultured overnight
[4] = tested on: HER2 CAB-T co-cultured with SKBR3; assay: Dasatinib inhibition of killing activity of HER2 CAB-T (LDH); details: E:T 5:1, over 12 hours

Cc1nc(Nc2ncc(C(=O)Nc3c(C)cccc3Cl)s2)cc(N2CCN(CCO)CC2)n1 [dasatinib]
around 25 nM: dose at which IFNγ secretion is inhibited effectively [1] | dose at which IL-2 secretion is inhibited effectively [1] | dose at which IFNγ secretion is inhibited effectively [3] | dose at which IL-2 secretion is inhibited effectively [3]
around 50 nM: dose at which cytotoxicity to target cells is inhibited effectively [2] | dose at which cytotoxicity to target cells is inhibited effectively [4]
